Test results: US5043353A, “A80789 polyether antibiotic” (Eli Lilly and Company, priority 1989, dated 1991)

System: Culture A80789
Test: Antibiotic sensitivity disc test on the producing culture
Assay type: cell-based, Streptomyces hygroscopicus
Details: ISP No. 2 agar
Method: Resistance to antibiotics was measured by padding antibiotic sensitivity discs onto the surface of seeded ISP No. 2 agar plates. Resistance was scored as (+) when no zone of inhibition was observed and as (-) when a zone of inhibition was observed.

Compound	Resistance of culture to antibiotic (disc 10 mcg)	Resistance of culture to antibiotic (disc 30 mcg)	other results
CO[C@H]1/C=C/O[C@@]2(C)Oc3c(C)c(O)c4c(O)c(c(/C=N/N5CCN(C)CC5)c(O)c4c3C2=O)NC(=O)/C(C)=C\C=C\[C@H](C)[C@H](O)[C@@H](C)[C@@H](O)[C@@H](C)[C@H](OC(C)=O)[C@@H]1C [rifampin]			Resistance of culture to antibiotic (disc 5 mcg): resistant
[H]/N=C(/N)N[C@H]1[C@H](O)[C@@H](O)[C@H](O[C@@H]2O[C@@H](C)[C@](O)(C=O)[C@H]2O[C@@H]2O[C@@H](CO)[C@H](O)[C@@H](O)[C@@H]2NC)[C@@H](N/C(N)=N\[H])[C@@H]1O [streptomycin]	sensitive		
CN(C)[C@@H]1C(=O)C(C(N)=O)=C(O)[C@@]2(O)C(=O)C3=C(O)c4c(O)cccc4[C@@](C)(O)[C@H]3C[C@@H]12 [tetracycline]		sensitive	
NC[C@H]1O[C@H](O[C@H]2[C@H](O)[C@@H](O[C@H]3O[C@H](CO)[C@@H](O)[C@H](N)[C@H]3O)[C@H](N)C[C@@H]2N)[C@H](N)C[C@@H]1O [tobramycin]	sensitive		
CN[C@H](CC(C)C)C(=O)N[C@H]1C(=O)N[C@@H](CC(N)=O)C(=O)N[C@H]2C(=O)N[C@H]3C(=O)N[C@H](C(=O)N[C@H](C(=O)O)c4cc(O)cc(O)c4-c4cc3ccc4O)[C@H](O)c3ccc(c(Cl)c3)Oc3cc2cc(c3O[C@@H]2O[C@H](CO)[C@@H](O)[C@H](O)[C@H]2O[C@H]2C[C@](C)(N)[C@H](O)[C@H](C)O2)Oc2ccc(cc2Cl)[C@H]1O [vancomycin]		sensitive	
gentamicin	sensitive		
neomycin		sensitive	
